For data set [1], the system named is E. coli ATCC 25922. The data set can be described thus: MIC, broth microdilution. As to conditions: 24-hour incubation, MHB; for MIC90: Escherichia coli, ATCC25922, 24 h, read-out: MIC90 E. coli ATCC 25922. In kind it is cell-based, Escherichia coli. As to the method:
(§1) MIC was determined using the broth microdilution method in accordance with Clinical and Laboratory Standards Institute guidelines. All compounds were dissolved in dimethyl sulfoxide (DMSO; final DMSO concentration of less than 0.5%) and sterile double-distilled water and then diluted with Mueller-Hinton broth (MHB). Each compound’s stock solution was serially twofold diluted, resulting in concentrations ranging from 0.39 to 100 μg/ml, and thereafter added to sterile 96-well plates. All bacterial cell suspensions were adjusted in MHB to attain a starting inoculum of 1 × 10^6 cells/ml. A total of 100 μl volume of the bacterial suspension was then added to each well. Following a 24-hour incubation at 37°C, the optical density at 600 nm (OD600) was confirmed by measuring absorbance at 600 nm with a BioTek microplate reader. […] All measurements were repeated three times with duplicates each time.

For data set [2], the system named is rabbit erythrocytes. The data set can be described thus: Hemolysis assay. In kind it is cell-based. The settings on record: concentration causing 50% hemolysis of red blood cells; 1 hour, 37°C. As to the method: The hemolytic activity of antimicrobial agents was investigated as previously described ([70]). Briefly, the rabbit erythrocytes were centrifuged at 2500 rpm for 3 min before being washed twice with sterile phosphate-buffered saline (PBS) (pH 7.4). Subsequently, the erythrocytes were diluted with PBS to a final concentration of 8% (v/v). The DMSO-dissolved compounds were twofold serially diluted in PBS to achieve a final concentration with DMSO less than 0.5%. […] Sterile PBS and 0.2% Triton X-100 were used as negative and positive controls, respectively. After 1 hour of incubation at 37°C, the tested samples were centrifuged at 2500 rpm for 5 min, and aliquots of the supernatant were added to 96-well microplates. The hemoglobin release was determined by measuring the absorbance at 576 nm using a BioTek multimode reader. The percentage of hemolytic activity was calculated using the following formula: Hemolysis rate (%) = [OD576 (compound) − OD576 (PBS)]/[OD576 (Triton X-100) − OD576 (PBS)] × 100. All measurements were repeated three times with duplicates each time.

The subject of data set [3] is MRSA N315. The data set can be described thus: MIC, broth microdilution. It counts as cell-based. The settings on record: Staphylococcus aureus, 24-hour incubation, MHB, read-out: MIC90 MRSA N315. On the procedure:
as §1
(Dilution methods test growth across graded concentrations, often in twofold steps.)

Data set [4] concerns MRSA NCTC 10442. The data set can be described thus: MIC, broth microdilution. In kind it is cell-based. The settings on record: Staphylococcus aureus; 24-hour incubation, MHB; read-out: MIC90 MRSA NCTC 10442. On the procedure:
as §1

Data set [5] relates to S. aureus ATCC 29213. As to the kind of experiment: MIC, broth microdilution. It counts as cell-based. As to conditions: Staphylococcus aureus, ATCC29213, 24 h, 24-hour incubation, MHB; read-out: MIC90 S. aureus ATCC 29213. On the procedure:
as §1

Data set [6] deals with Gram-positive bacteria. The data set can be described thus: MIC, summary over Gram-positive strains. In kind it is cell-based. The settings on record: read-out: MICs against Gram-positive bacteria, three Gram-positive strains. On the procedure:
as §1

Data set [7] can be described thus: CCK-8 cytotoxicity assay. It counts as cell-based. As to conditions: mouse, NCTC clone 929 fibroblast cells, 25 μg/ml, read-out: %Viable cells NCTC clone 929 cells. As to the method:
Cytotoxicity of the compound tested was assessed by CCK-8 assays as previously described ([71]). […] Following a 24-hour incubation, 10 μl of CCK-8 reagent was added to each well and incubated for 1 hour. The absorbance at 450 nm was measured by a microplate reader. All measurements were repeated three times with duplicates each time.
On the technique in general: Tetrazolium assays rely on reduction of a dye to a coloured formazan, in cell work by metabolically active cells.

For data set [8], the system named is K. pneumonia ATCC 10031. The data set can be described thus: MIC, broth microdilution. It counts as cell-based. As to conditions: Klebsiella pneumoniae, ATCC10031; 24-hour incubation, MHB. As to the method:
as §1

In data set [9] the test system is P. aeruginosa ATCC 9027. As to the kind of experiment: MIC, broth microdilution. The settings on record: Pseudomonas aeruginosa, ATCC9027; 24-hour incubation, MHB. In kind it is cell-based. As to the method:
as §1

Data set [10] concerns A. baumannii R2889. As to the kind of experiment: MIC, broth microdilution. In kind it is cell-based. As to conditions: Acinetobacter baumannii, 24-hour incubation, MHB. As to the method:
as §1

Data set [11] relates to A. baumannii ATCC 17978. The data set can be described thus: MIC, broth microdilution. It counts as cell-based. The settings on record: Acinetobacter baumannii, ATCC17978; 24-hour incubation, MHB. On the procedure: as §1
In data set [12] the test system is K. pneumonia ATCC 14581. As to the kind of experiment: MIC, broth microdilution. In kind it is cell-based. As to conditions: Klebsiella pneumoniae, ATCC14581; 24-hour incubation, MHB. As to the method:
as §1

Data set [13] has as its system tested strains (Gram-positive and Gram-negative bacteria). As to the kind of experiment: MIC, summary over the tested strains. It counts as cell-based. As to conditions: Gram-positive and Gram-negative strains; read-out: MICs against the tested strains. On the procedure:
as §1

≈ marks a conversion by molar mass, not a printed value.

Turning to `CCCCN(CCCC)CCCOc1ccc2c(=O)c3c(OCC=C(C)C)cc(OCCCN(CCCC)CCCC)cc3oc2c1` [XT10], the MIC90 (commonly an inhibitory concentration at the 90% level, which refers to growth in some studies and to a panel of isolates in others) in [1] is over 50 µg/mL; in [3] it was 6.25 µg/mL (≈ 9.6 µM); in data set [4], 12.5 µg/mL (≈ 19.2 µM); in data set [5], 12.5 µg/mL (≈ 19.2 µM). Moreover, the HC50 (commonly the concentration giving 50% haemolysis) in data set [2] was over 200 µg/mL.
With `CC(C)=CCOc1cc(OCCCCNC(=N)N)cc2oc3cc(OCCCCNC(=N)N)ccc3c(=O)c12` [XT43], the “MIC90 E. coli ATCC 25922” value in data set [1] was 1.56 µg/mL (≈ 2.9 µM). Also, the MIC90 in [1] is 1.56 to 12.5 µg/mL (≈ 2.9 to 23.2 µM); in data set [3] it was 0.195 µg/mL (≈ 0.362 µM); in [8], 6.25 µg/mL (≈ 11.6 µM); in data set [4] it was 0.195 µg/mL (≈ 0.362 µM); in data set [5], 0.195 µg/mL (≈ 0.362 µM); in data set [9], 12.5 µg/mL (≈ 23.2 µM). Moreover, the MIC90 in [10] came out at 25 µg/mL (≈ 46.4 µM); in data set [11], 12.5 µg/mL (≈ 23.2 µM); in [12], 12.5 µg/mL (≈ 23.2 µM). The HC50 in data set [2] was over 200 µg/mL. Moreover, in data set [6], the MIC was in the range of 0.098 to 1.56 µg/mL (≈ 0.182 to 2.9 µM). Moreover, the viability at 24 h, 25 μg/ml in data set [7] is 40.3 ± 1.33%.
Regarding `CC1(C)S[C@@H]2[C@H](NC(=O)[C@H](N)c3ccc(O)cc3)C(=O)N2[C@H]1C(=O)O` [AMO, amoxicillin, reference compound], the MIC90 in [1] stood at 6.25 µg/mL (≈ 17.1 µM). The compound further came in with an HC50 in [2] of over 200 µg/mL.
For the compound `CNCCCCCCCCOc1ccc2c(=O)c3c(OCC=C(C)C)cc(OCCCCCCCCNC)cc3oc2c1` [XT37], the MIC90 in data set [1] worked out at 6.25 µg/mL (≈ 10.5 µM); in [3], 0.39 µg/mL (≈ 0.656 µM); in data set [4] it was 0.39 µg/mL (≈ 0.656 µM); in [5], 0.78 µg/mL (≈ 1.31 µM). This compound returned an HC50 in data set [2] of over 200 µg/mL.
Turning to `CCN(CC)CCCCCCCCCCCCOc1ccc2c(=O)c3c(OCC=C(C)C)cc(OCCCCCCCCCCCCN(CC)CC)cc3oc2c1` [XT41], the “MIC90 E. coli ATCC 25922” value in [1] was over 100 µg/mL. Besides, the MIC90 in data set [1] was over 100 µg/mL; in [3] it was 3.12 µg/mL (≈ 3.95 µM); in data set [4], 3.12 µg/mL (≈ 3.95 µM). The same compound had an HC50 in data set [2] of over 200 µg/mL.
With `CCN(CC)CCCCOc1ccc2c(=O)c3c(OCC=C(C)C)cc(OCCCCN(CC)CC)cc3oc2c1` [XT32], the MIC90 in [1] was found to be 100 µg/mL (≈ 176 µM); in data set [3], 6.25 µg/mL (≈ 11 µM); in data set [4], 3.12 µg/mL (≈ 5.51 µM); in data set [5] it was 3.12 µg/mL (≈ 5.51 µM). Also, the HC50 in data set [2] was over 200 µg/mL.
Consider `CNCCCCOc1ccc2c(=O)c3c(OCC=C(C)C)cc(OCCCCNC)cc3oc2c1` [XT31], for which the MIC90 amounted to 12.5 µg/mL (≈ 25.9 µM) in data set [1], 6.25 µg/mL (≈ 13 µM) in data set [3], 6.25 µg/mL (≈ 13 µM) in [4] and 6.25 µg/mL (≈ 13 µM) in [5]. This compound had an HC50 in [2] of over 200 µg/mL.
`CNCCCCCCOc1ccc2c(=O)c3c(OCC=C(C)C)cc(OCCCCCCNC)cc3oc2c1` [XT34]: the MIC90 stood at 12.5 µg/mL (≈ 23.2 µM) in data set [1], 1.56 µg/mL (≈ 2.9 µM) in data set [3], 1.56 µg/mL (≈ 2.9 µM) in data set [4] and 1.56 µg/mL (≈ 2.9 µM) in data set [5]. Further, in [2], the HC50 was over 200 µg/mL.
Turning to `O=c1c2ccc(O)cc2oc2cc(O)cc(O)c12` [XT01], the MIC90 in [1] was over 100 µg/mL; in data set [3], 50 µg/mL (≈ 205 µM); in [8] it was over 50 µg/mL; in [4], 50 µg/mL (≈ 205 µM); in data set [5], 50 µg/mL (≈ 205 µM); in [9], over 50 µg/mL. Moreover, the MIC90 in data set [10], in data set [11] and in [12] was over 50 µg/mL each time. The compound further gave an HC50 in data set [2] of over 200 µg/mL.
Turning to `CCN(CC)CCCOc1ccc2c(=O)c3c(OCC=C(C)C)cc(OCCCN(CC)CC)cc3oc2c1` [XT09], the MIC90 worked out at 50 µg/mL (≈ 92.8 µM) in data set [1], 12.5 µg/mL (≈ 23.2 µM) in data set [3], 6.25 µg/mL (≈ 11.6 µM) in data set [4] and 6.25 µg/mL (≈ 11.6 µM) in [5]. Also, the MIC in data set [13] lay within 6.25 to 50 µg/mL (≈ 11.6 to 92.8 µM). In data set [2], this compound displayed an HC50 of over 200 µg/mL.

The record behind these values is PMC11881906, “Development of xanthone derivatives as effective broad-spectrum antimicrobials: Disrupting cell wall and inhibiting DNA synthesis” (Science Advances, 2025).
